biological target: human Cav2.2 (Homo sapiens, UniProt Q00975); experiment: Assessment of calcium channel activity using FLIPR (Ca2+ influx in IMR32 cells); format: cell-based; details: not given
Summary of the method: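 IC50 values derive from nonlinear sigmoidal fitting of percent inhibition, relative to inhibitor-free activity, of Ca2+ influx read by FLIPR. Cells were IMR32 human neuroblastoma, plated at 1−1.2×10^5 per well and grown 48 h at 37 °C.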

Chain of human Cav2.2 (Q00975 whole entry): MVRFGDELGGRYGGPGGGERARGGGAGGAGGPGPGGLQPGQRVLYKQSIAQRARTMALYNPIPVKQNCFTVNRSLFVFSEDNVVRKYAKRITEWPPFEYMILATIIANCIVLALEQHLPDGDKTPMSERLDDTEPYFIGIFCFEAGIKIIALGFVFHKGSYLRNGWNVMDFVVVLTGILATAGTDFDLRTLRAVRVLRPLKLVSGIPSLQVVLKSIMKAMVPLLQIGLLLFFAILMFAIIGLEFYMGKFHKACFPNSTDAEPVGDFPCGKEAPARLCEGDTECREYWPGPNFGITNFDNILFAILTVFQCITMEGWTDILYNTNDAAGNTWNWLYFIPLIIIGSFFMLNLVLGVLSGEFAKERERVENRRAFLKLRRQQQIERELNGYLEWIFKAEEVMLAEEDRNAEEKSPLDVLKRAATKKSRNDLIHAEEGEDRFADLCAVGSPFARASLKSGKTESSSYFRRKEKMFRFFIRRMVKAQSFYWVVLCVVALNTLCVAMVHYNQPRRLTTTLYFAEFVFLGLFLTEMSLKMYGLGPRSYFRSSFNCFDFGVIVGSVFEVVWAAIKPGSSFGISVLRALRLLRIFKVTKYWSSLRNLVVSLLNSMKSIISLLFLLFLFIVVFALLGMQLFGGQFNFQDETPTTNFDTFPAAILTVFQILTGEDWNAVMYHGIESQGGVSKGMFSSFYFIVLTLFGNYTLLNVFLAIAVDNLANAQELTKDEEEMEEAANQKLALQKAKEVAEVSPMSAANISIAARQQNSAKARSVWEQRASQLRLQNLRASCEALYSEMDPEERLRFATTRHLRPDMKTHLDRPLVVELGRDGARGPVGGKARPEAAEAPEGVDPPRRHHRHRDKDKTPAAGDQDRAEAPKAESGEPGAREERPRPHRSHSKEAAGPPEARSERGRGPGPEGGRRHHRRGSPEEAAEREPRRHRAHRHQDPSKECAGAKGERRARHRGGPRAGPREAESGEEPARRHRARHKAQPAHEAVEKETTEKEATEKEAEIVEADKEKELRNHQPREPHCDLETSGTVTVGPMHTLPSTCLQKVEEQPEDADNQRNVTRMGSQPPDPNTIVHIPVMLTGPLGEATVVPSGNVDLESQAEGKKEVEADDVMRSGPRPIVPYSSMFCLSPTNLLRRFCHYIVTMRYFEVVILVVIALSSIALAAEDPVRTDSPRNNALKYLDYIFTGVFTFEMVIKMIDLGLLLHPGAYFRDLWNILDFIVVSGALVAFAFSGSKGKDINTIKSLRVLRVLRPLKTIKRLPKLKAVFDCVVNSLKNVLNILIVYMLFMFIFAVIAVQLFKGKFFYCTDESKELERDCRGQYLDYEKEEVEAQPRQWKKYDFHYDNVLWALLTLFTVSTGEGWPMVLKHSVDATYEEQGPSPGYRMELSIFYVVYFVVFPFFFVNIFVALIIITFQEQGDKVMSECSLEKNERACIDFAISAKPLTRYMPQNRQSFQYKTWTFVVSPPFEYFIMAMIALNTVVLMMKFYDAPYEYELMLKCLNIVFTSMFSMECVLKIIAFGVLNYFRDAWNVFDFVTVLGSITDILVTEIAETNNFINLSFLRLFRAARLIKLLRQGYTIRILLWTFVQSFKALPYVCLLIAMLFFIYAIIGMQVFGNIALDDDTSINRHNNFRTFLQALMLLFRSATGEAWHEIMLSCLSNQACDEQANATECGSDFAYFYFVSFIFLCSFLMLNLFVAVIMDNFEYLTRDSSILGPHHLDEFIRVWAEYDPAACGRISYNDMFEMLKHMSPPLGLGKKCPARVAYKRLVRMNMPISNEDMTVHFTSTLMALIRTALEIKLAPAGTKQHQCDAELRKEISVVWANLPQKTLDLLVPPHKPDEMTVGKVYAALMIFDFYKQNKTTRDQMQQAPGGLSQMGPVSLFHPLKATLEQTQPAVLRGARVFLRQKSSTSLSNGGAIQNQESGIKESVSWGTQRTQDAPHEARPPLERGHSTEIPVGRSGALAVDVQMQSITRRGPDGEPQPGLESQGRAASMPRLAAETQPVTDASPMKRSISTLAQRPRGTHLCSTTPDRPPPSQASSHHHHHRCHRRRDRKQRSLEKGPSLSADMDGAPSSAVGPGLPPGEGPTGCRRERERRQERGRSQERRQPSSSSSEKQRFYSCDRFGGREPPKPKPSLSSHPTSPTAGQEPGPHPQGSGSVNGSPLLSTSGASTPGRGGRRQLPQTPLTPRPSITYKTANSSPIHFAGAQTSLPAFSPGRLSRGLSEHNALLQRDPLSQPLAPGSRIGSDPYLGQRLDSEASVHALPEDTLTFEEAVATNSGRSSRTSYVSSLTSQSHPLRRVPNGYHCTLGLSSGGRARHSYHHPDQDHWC
Chain of human Cav2.2 (P54289 25-956 partner limits assumed): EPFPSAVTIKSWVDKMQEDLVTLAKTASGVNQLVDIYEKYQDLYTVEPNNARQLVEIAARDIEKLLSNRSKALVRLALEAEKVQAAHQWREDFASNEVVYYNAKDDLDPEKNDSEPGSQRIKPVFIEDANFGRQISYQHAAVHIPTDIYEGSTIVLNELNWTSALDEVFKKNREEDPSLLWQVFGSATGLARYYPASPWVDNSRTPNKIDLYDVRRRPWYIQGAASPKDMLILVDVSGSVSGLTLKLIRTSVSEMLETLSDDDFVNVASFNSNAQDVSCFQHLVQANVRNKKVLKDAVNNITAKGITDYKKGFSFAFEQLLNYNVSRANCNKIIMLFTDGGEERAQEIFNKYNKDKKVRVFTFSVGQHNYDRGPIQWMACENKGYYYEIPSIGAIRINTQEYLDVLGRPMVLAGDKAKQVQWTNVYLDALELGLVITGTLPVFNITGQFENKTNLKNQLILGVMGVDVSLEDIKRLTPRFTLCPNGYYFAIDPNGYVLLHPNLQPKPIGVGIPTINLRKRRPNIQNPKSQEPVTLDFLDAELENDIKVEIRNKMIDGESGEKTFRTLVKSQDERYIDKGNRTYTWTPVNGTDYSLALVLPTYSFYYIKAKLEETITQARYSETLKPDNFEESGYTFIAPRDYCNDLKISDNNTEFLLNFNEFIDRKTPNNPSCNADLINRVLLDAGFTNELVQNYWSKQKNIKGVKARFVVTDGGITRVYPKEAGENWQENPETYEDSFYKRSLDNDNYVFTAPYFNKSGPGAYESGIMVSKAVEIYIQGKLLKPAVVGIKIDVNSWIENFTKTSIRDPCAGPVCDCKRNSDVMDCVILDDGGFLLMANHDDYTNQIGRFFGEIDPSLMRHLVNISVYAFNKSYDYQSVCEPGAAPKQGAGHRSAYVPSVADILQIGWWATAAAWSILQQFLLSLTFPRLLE
Chain of human Cav2.2 (P54289 957-1103 partner limits assumed): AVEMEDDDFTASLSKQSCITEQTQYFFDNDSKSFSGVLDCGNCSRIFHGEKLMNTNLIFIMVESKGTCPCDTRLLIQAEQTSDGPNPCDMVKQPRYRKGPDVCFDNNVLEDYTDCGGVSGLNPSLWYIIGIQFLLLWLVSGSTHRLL
Chain of human Cav2.2 (P54284 whole entry partner): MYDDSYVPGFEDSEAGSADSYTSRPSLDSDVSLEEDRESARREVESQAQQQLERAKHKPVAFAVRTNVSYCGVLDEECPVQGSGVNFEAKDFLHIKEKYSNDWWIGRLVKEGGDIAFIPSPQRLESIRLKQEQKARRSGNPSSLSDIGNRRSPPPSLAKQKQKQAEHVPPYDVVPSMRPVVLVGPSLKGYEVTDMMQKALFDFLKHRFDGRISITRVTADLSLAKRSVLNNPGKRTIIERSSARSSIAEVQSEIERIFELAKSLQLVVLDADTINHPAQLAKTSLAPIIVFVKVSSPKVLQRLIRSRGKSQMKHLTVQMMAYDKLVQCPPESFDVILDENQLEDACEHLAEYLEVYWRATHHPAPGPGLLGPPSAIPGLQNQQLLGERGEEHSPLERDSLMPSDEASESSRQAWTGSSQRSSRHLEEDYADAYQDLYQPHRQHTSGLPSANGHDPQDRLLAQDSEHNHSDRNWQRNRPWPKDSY

SMILES | IC50
CC(C)(C)C[C@H](N)C(=O)N[C@H]1CC[C@@H]2CN(C(=O)[C@@H](N)Cc3ccccc3)C[C@@H]21 [Example 465, 4-methyl-N^1-[(3aR,4S,6aS)-2-L-phenylalanyloctahydrocyclopenta[c]pyrrol-4-yl]-L-leucinamide] | > 30 µM
N#Cc1ccc(N2C[C@H]3CC[C@H](NC(=O)[C@@H]4C[C@@H](F)CN4)[C@H]3C2)cc1 [Example 633, (4R)-N-[(3aR,4S,6aS)-2-(4-cyanophenyl)octahydrocyclopenta[c]pyrrol-4-yl]-4-fluoro-L-prolinamide] | 26.2 µM
CCC[C@H](NC)C(=O)N[C@H]1CC[C@@H]2CN(c3ccc(C(F)(F)F)cc3)C[C@@H]21 [Example 759, N^2-methyl-N-{(3aR,4S,6aS)-2-[4-(trifluoromethyl)phenyl]octahydrocyclopenta[c]pyrrol-4-yl}-L-norvalinamide] | 13 µM
CCC[C@H](NC)C(=O)N[C@H]1CC[C@@H]2CN(Cc3ccccc3)C[C@@H]21 [Example 365, N^1-[(3aR,4S,6aS)-2-benzyloctahydrocyclopenta[c]pyrrol-4-yl]-N^2-methyl-L-norvalinamide] | > 30 µM
CN[C@H](C(=O)N[C@@H]1CC[C@H]2CN(Cc3ccccc3)C[C@H]21)C(C)C [Example 351, N^1-[(3aS,4R,6aR)-2-benzyloctahydrocyclopenta[c]pyrrol-4-yl]-N^2-methyl-L-valinamide] | > 30 µM
CCC[C@H](NC)C(=O)N[C@H]1CC[C@@H]2CN(S(=O)(=O)c3ccco3)C[C@@H]21 [Example 547, N^1-[(3aR,4S,6aS)-2-(2-furylsulfonyl)octahydrocyclopenta[c]pyrrol-4-yl]-N^2-methyl-L-norvalinamide] | > 30 µM
CC(C)(C)[C@H](N)C(=O)N[C@@H]1CC[C@H]2CN(Cc3ccccc3)C[C@H]21 [Example 356, N^1-[(3aS,4R,6aR)-2-benzyloctahydrocyclopenta[c]pyrrol-4-yl]-3-methyl-L-valinamide] | > 30 µM

Now from value to compound:

IC50 | SMILES
0.46 µM | O=C(N[C@H]1CC[C@H]2CN(Cc3cccc(C(F)(F)F)c3)C[C@H]21)C(C1CCCCC1)C1CCCCC1 [Example 54, 2,2-dicyclohexyl-N-{(3aS,4S,6aR)-2-[3-(trifluoromethyl)benzyl]octahydrocyclopenta[c]pyrrol-4-yl}acetamide]
0.94 µM | Cn1nccc1CN[C@H]1CC[C@@H]2CN(c3cccc(C(F)(F)F)n3)C[C@@H]21 [Example 725, (3aR,4S,6aS)-N-[(1-methyl-1H-pyrazol-5-yl)methyl]-2-[6-(trifluoromethyl)pyridin-2-yl]octahydrocyclopenta[c]pyrrol-4-amine]
7.77 µM | CN[C@@H](CC(C)C)C(=O)N[C@H]1CC[C@@H]2CN(c3ccc(Cl)cc3)C[C@@H]21 [Example 639, N-[(3aR,4S,6aS)-2-(4-chlorophenyl)octahydrocyclopenta[c]pyrrol-4-yl]-N^2-methyl-L-leucinamide]
1.02 µM | CCC[C@H](NC)C(=O)N[C@H]1CC[C@@H]2CN(c3cccc(C(F)(F)F)n3)C[C@@H]21 [Example 588, N^2-methyl-N-{(3aR,4S,6aS)-2-[6-(trifluoromethyl)pyridin-2-yl]octahydrocyclopenta[c]pyrrol-4-yl}-L-norvalinamide]
2.01 µM | CC(C)CN[C@H]1CC[C@@H]2CN(c3cccc(C(F)(F)F)n3)C[C@@H]21 [Example 610, (3aR,4S,6aS)-N-isobutyl-2-[6-(trifluoromethyl)pyridin-2-yl]octahydrocyclopenta[c]pyrrol-4-amine]
0.48 µM | FC(F)(F)c1cccc(N2C[C@H]3CC[C@H](NCc4cccc5nsnc45)[C@H]3C2)n1 [Example 728, (3aR,4S,6aS)-N-(2,1,3-benzothiadiazol-4-ylmethyl)-2-[6-(trifluoromethyl)pyridin-2-yl]octahydrocyclopenta[c]pyrrol-4-amine]
1.26 µM | CN[C@@H](CC(C)C)C(=O)N[C@H]1CC[C@@H]2CN(c3cccc(F)c3F)C[C@@H]21 [Example 730, N-[(3aR,4S,6aS)-2-(2,3-difluorophenyl)octahydrocyclopenta[c]pyrrol-4-yl]-N^2-methyl-L-leucinamide]
1.63 µM | CC(C)C(C(=O)N[C@H]1CC[C@@H]2CN(Cc3cccc(C(F)(F)F)c3)C[C@@H]21)C(C)C [Example 305, 2-isopropyl-3-methyl-N-{(3aR,4S,6aS)-2-[3-(trifluoromethyl)benzyl]octahydrocyclopenta[c]pyrrol-4-yl}butanamide]
1.86 µM | CC(C)(C)NC(=O)N[C@H]1CC[C@@H]2CN(c3cccc(OC(F)(F)F)c3)C[C@@H]21 [Example 779, 1-tert-butyl-3-{(3aR,4S,6aS)-2-[3-(trifluoromethoxy)phenyl]octahydrocyclopenta[c]pyrrol-4-yl}urea]
0.4 µM | CC(C)C[C@H](O)C(=O)N[C@H]1CC[C@@H]2CN(c3cccc(C(F)(F)F)n3)C[C@@H]21 [Example 567, (2S)-2-hydroxy-4-methyl-N-{(3aR,4S,6aS)-2-[6-(trifluoromethyl)pyridin-2-yl]octahydrocyclopenta[c]pyrrol-4-yl}pentanamide]
1.42 µM | CN[C@H](C(=O)N[C@H]1CC[C@@H]2CN(c3cccc(OC(F)(F)F)c3)C[C@@H]21)C(C)C [Example 758, N^2-methyl-N-{(3aR,4S,6aS)-2-[3-(trifluoromethoxy)phenyl]octahydrocyclopenta[c]pyrrol-4-yl}-L-valinamide]
1.08 µM | CN[C@@H](CC(C)C)C(=O)N[C@H]1CC[C@@H]2CN(c3ccc(F)c(OC(F)(F)F)c3)C[C@@H]21 [Example 772, N-{(3aR,4S,6aS)-2-[4-fluoro-3-(trifluoromethoxy)phenyl]octahydrocyclopenta[c]pyrrol-4-yl}-N^2-methyl-L-leucinamide]
0.82 µM | O=C(N[C@H]1CC[C@H]2CN(CCCc3cccc(F)c3)C[C@H]21)C(C1CCCCC1)C1CCCCC1 [Example 68, 2,2-dicyclohexyl-N-{(3aS,4S,6aR)-2-[3-(3-fluorophenyl)propyl]octahydrocyclopenta[c]pyrrol-4-yl}acetamide]
7.26 µM | CN[C@@H](CC(C)C)C(=O)N[C@H]1CC[C@@H]2CN(c3ccc(SC(F)(F)F)cc3)C[C@@H]21 [Example 707, N^2-methyl-N-[(3aR,4S,6aS)-2-{4-[(trifluoromethyl)thio]phenyl}octahydrocyclopenta[c]pyrrol-4-yl]-L-leucinamide]
1.52 µM | O=C(N[C@H]1CC[C@@H]2CN(c3cccc(C(F)(F)F)n3)C[C@@H]21)[C@H](O)C(F)(F)F [Example 585, (2S)-3,3,3-trifluoro-2-hydroxy-N-{(3aR,4S,6aS)-2-[6-(trifluoromethyl)pyridin-2-yl]octahydrocyclopenta[c]pyrrol-4-yl}propanamide]
0.8 µM | FC(F)(F)c1cccc(N2C[C@H]3CC[C@H](NCc4c[nH]nc4-c4cccs4)[C@H]3C2)n1 [Example 669, (3aR,4S,6aS)-N-{[3-(2-thienyl)-1H-pyrazol-4-yl]methyl}-2-[6-(trifluoromethyl)pyridin-2-yl]octahydrocyclopenta[c]pyrrol-4-amine]
2.31 µM | O=C(N[C@H]1CC[C@H]2CN(Cc3cccc(C(F)(F)F)c3)C[C@H]21)C1CCCC1 (relative stereo) [Example 129, N-{(3aS*,4S*,6aR*)-2-[3-(trifluoromethyl)benzyl]octahydrocyclopenta[c]pyrrol-4-yl}cyclopentanecarboxamide]

same assay, conditions: read-out: IC50 (μM) or percent inhibition (* indicates 3 minute incubation, otherwise 60 minute); IC50; 60 minute pre-incubation with compound; IMR32 cells, 80 mM KCl depolarization

IC50 | SMILES
4.55 µM | CC(C)C[C@H](NS(C)(=O)=O)C(=O)N[C@@H]1CC[C@H]2CN(Cc3cccc(C(F)(F)F)c3)C[C@H]21 [Example 170, N^2-(methylsulfonyl)-N^1-{(3aS,4R,6aR)-2-[3-(trifluoromethyl)benzyl]octahydrocyclopenta[c]pyrrol-4-yl}-L-leucinamide]
1.04 µM | CC(C)C(C(=O)N[C@H]1CC[C@@H]2CN(CCCC(c3ccc(F)cc3)c3ccc(F)cc3)C[C@@H]21)c1ccccc1 (stereo partly drawn) [Example 118, N-{(3aR,4S,6aS)-2-[4,4-bis(4-fluorophenyl)butyl]octahydrocyclopenta[c]pyrrol-4-yl}-3-methyl-2-phenylbutanamide]
5.67 µM | O=C(N[C@@H]1CC[C@H]2CN(Cc3ccc(C(F)(F)F)c(F)c3)C[C@H]21)C(C1CCCCC1)C1CCCCC1 [Example 76, 2,2-dicyclohexyl-N-{(3aS,4R,6aR)-2-[3-fluoro-4-(trifluoromethyl)benzyl]octahydrocyclopenta[c]pyrrol-4-yl}acetamide]
5.55 µM | CC(C)C[C@@H](N)C(=O)N[C@@H]1CC[C@@H]2CN(Cc3cccc(C(F)(F)F)c3)C[C@@H]21 (stereo in doubt) [Example 159, N^1-{(3aR*,4R*,6aS*)-2-[3-(trifluoromethyl)benzyl]octahydrocyclopenta[c]pyrrol-4-yl}-D-leucinamide]
14.1 µM | CC(C)[C@@H](CC(=O)N[C@@H]1CC[C@H]2CN(S(=O)(=O)c3cccc(C(F)(F)F)c3)C[C@H]21)NC(=O)OC(C)(C)C [Example 267, tert-butyl(1R)-1-isopropyl-3-oxo-3-[((3aS,4R,6aR)-2-{[3-(trifluoromethyl)phenyl]sulfonyl}octahydrocyclopenta[c]pyrrol-4-yl)amino]propylcarbamate]
0.94 µM | O=C(N[C@@H]1CC[C@H]2CN(CCC(c3ccccc3)c3ccccc3)C[C@H]21)C(C1CCCCC1)C1CCCCC1 [Example 79, 2,2-dicyclohexyl-N-[(3aS,4R,6aR)-2-(3,3-diphenylpropyl)octahydrocyclopenta[c]pyrrol-4-yl]acetamide]
2.21 µM | O=S(=O)(c1cccc(C(F)(F)F)c1)N(C1CC1)[C@H]1CC[C@H]2CN(Cc3ccccc3)C[C@H]21 (relative stereo) [Example 199, N-[(3aS*,4S*,6aR*)-2-benzyloctahydrocyclopenta[c]pyrrol-4-yl]-N-cyclopropyl-3-(trifluoromethyl)benzenesulfonamide]
0.51 µM | CC(C)(C)C(C(=O)N[C@@H]1CC[C@H]2CN(Cc3cccc(C(F)(F)F)c3)C[C@H]21)c1ccccc1 (relative stereo) [Example 147, 3,3-dimethyl-2-phenyl-N-{(3aS*,4R*,6aR*)-2-[3-(trifluoromethyl)benzyl]octahydrocyclopenta[c]pyrrol-4-yl}butanamide]

Source: patent US8691865B2 (AbbVie Inc., priority 2008, dated 2014)
